Test results taken from US20190008864A1, “PHARMACEUTICAL COMPOSITION CONTAINING GPR119 LIGAND AS EFFECTIVE INGREDIENT FOR PREVENTING OR TREATING NON-ALCOHOLIC STEATOHEPATITIS” (PHARMEDIX.CO., LTD., priority 2014, published 2019).

Columns and labels:
SREBP-1c = assay: SREBP-1C expression in HepG2 under high glucose/insulin with GPR119 ligand plus AMPK or PKA inhibitor; assay type: cell-based, human
Protocol: (§1) Sodium dodecyl sulfate-polyacrylamide gel electrophoresis (SDS-PAGE) was carried out by means of a gel electrophoresis device (Mighty Small SE 250, Hoefer Scientific Instruments, San Francisco) according to a method by Laemmli (UK, Nature 227, 680-685, 1970). Each of cell lysate fractions was diluted with a buffer solution for sample dilution [63 mM Tris (pH. 6.8), 10% glycerol, 2% SDS, 0.0013% bromophenol blue, and 5% β-mercaptoethanol], and then electrophoresed on a 8% or 10% gel in an electrode buffer solution (1 l of the solution contained 15 g of Tris, 72 g of glycerin, and 5 g of SDS). […] Whether total protein contents in samples are the same is determined using anti-β-actin and anti-LaminA/C antibodies. Changes in protein expression amounts were determined by measuring the intensities of chemiluminescence signals on the blot by means of densitometry. […] Each lane was calculated using AlphaEase™ version 5.5 software and background intensity was removed from the calculated values. […]
An experiment therefor was performed as follows. […] Protein expression change was measured using the western blotting method of the method D.

[1] = test system: fatty liver model induced by a high-fat diet; assay: Fatty liver model induced by high-fat diet; assay type: in vivo, C57BL/6J mice; details: animal models fed with a high-fat diet
Source text: In the present invention, a high fat diet (HFD: 60% fat calories, Research diets, D12492, US) was used as an obesity induction diet.
Six-week-old male C57BL/6J mice (Central Lab. Animal Inc., Seoul, Korea) were acclimated to an experimental environment for one week while being fed solid food, and then randomly divided into a control group and an experimental group for a high-fat diet using a randomized block design. The animal groups were fed for 12 weeks, and thus, fatty liver animal models were established. Fatty liver development was determined according to blood biochemical and histochemical analysis methods. The mice were orally fed with the high-fat diet only for six weeks, and in combination with a GPR119 ligand (10 mg/kg) suspended in 40% PEG400 once a day for five days every week. Choline-deficient, amino acid-fixed high-fat diet steatohepatitis models were prepared by feeding six-week-old male C57BL/6J mice (Central Lab. Animal Inc., Seoul) with a diet containing 60 kcal fat and 0.1% methionine for four weeks. After terminating the experiment, experimental animals fasted for 12 hours or more. Subsequently, blood, liver, and adipose tissues in intestines (epididymal fat, kidney-surrounding fat) were collected from the animals that had been anesthetized with diethyl ether and then washed with a 0.1 M phosphate buffered saline (pH 7.4), followed by being weighed. Blood collected from abdominal aortas was centrifuged at 3000 rpm for 20 minutes using SST tubes to separate serum.
A total cholesterol concentration and a total glucose concentration in serum from each of the aforementioned experimental animals raised for 12 weeks were measured as follows. Each of the total cholesterol concentration and the total glucose concentration in serum was measured twice by means of a commercial measurement kit (Bio Clinical Systems). The amount of alanine aminotransferase (ALT) in blood used as a liver function index was measured by means of a commercial analysis kit (Bio Clinical Systems, Korea).
The collected liver tissues were fixed with a 10% neutral formalin solution and then subjected to a common fixation procedure and dehydration process, followed by embedding the same in paraffin. The embedded tissues were sectioned to a thickness of 4 μm and stained with H&E. The stained tissues were observed by means of an optical microscope.
A predetermined amount of each of the liver tissues was homogenized in liquid nitrogen and a cell lysis buffer in a mortar, and then a lysed tissue solution was transferred to a new tube, followed by vortexing. […] A middle layer of the centrifuged solution was collected and then subjected to protein quantification by the Bradford assay. […] Expression changes of FAS and SREBP-1c proteins were measured by western blotting. […]

[2] = test system: mouse liver tissue and hepatocyte line; assay: Summary statement: mouse liver tissue and hepatocyte line treated with the two GPR119 ligands; assay type: cell-based
SCD-1 mRNA = SCD-1 mRNA expression after T0901317 treatment, HepG2 (real time PCR); assay type: cell-based, human; details: 10 μM T0901317 alone
Protocol: (§2) A 6-well plate was inoculated with HepG2 (ATCC, US), as a human hepatocyte line, and cultured until confluence in a DMEM medium containing 1% penicillin-streptomycin (Hyclone, US) and 10% fetal bovine serum (Hyclone, US) in a 5% CO2 incubator at 37° C. The medium containing 10% fetal bovine serum of the hepatocyte line grown to confluence was replaced by a medium not containing FBS. The cell line was additionally cultured for 18 hours and used as a sample for an experiment.
(§3) 1 ml of a TRIzol solution was added to each of cell samples to lyse the cells. Subsequently, centrifugation was carried out at 4° C. and 12,000×g for 10 minutes. […]
(§4) A supernatant was transferred to a new tube and then isopropanol was added thereto in the same amount as the supernatant. […] The concentration of an extracted RNA sample was measured at wavelengths of 260 nm and 280 nm by means of a UV/VIS spectrum analyzer (Nanodrop, Thermo, US) and cDNAs were synthesized therefrom using an RT kit. […]
(§5) A medium containing the GPR119 ligand (MBX-2982, GSK-1292263A) was added to a human hepatocyte line (HepG2) cultured as in the method C and, 30 minutes later, the cell line was treated with 10 μM T0901317 for nine hours. […] To investigate mRNA expression change in SCD-1 and FAS, RNAs were isolated and cDNAs were synthesized therefrom as in the method E. mRNA expression levels were measured using real time-PCR as in the method F.

FAS mRNA = FAS mRNA expression after T0901317 treatment, HepG2 (real time PCR); assay type: cell-based, human; details: 10 μM T0901317 alone
Protocol: as §2, §3, §4, §5

SREBP-1c protein [3] = assay: SREBP-1c expression after T0901317 treatment, HepG2 (western blot); assay type: cell-based, human; details: 10 μM T0901317 alone, nine hours, compared to no treatment
Protocol: as §2
as §1, with “1970).” for “1970). Each of cell lysate fractions was diluted with a buffer solution for sample dilution [63 mM Tris (pH. 6.8), 10% glycerol, 2% SDS, 0.0013% bromophenol blue, and 5% β-mercaptoethanol], and then electrophoresed on a 8% or 10% gel in an electrode buffer solution (1 l of the solution contained 15 g of Tris, 72 g of glycerin, and 5 g of SDS).”

SREBP-1c protein [4] = assay: SREBP-1c expression after T0901317 treatment, primary hepatocytes (western blot); assay type: cell-based, mouse; details: 10 μM T0901317 alone, nine hours, compared to no treatment
Protocol: Liver cells were collected from male C57BL/6 mice (Central Lab. Animal Inc., Seoul) according to a method by Seglen et al. (Exp Cell Res., 82, pp 391-398, 1973). Each C57BL/6 mouse was anesthetized and then the abdomen thereof was incised. Subsequently, the hepatic portal vein was intubated and a gas mixture of 5% CO2 and 95% O2 was insufflated thereinto. A Ca^2+ and Mg^2+-free Hank's balanced salt solution at 37° C. was flowed into the tube to remove blood in the liver. Subsequently, a 0.1% collagenase type IV (Sigma, US) solution was flowed thereinto. The liver tissue was removed from the body, and then prepared into a hepatocyte suspension. The prepared hepatocyte suspension was centrifuged at 50×g for two minutes. […]
Sodium dodecyl sulfate-polyacrylamide gel electrophoresis (SDS-PAGE) was carried out by means of a gel electrophoresis device (Mighty Small SE 250, Hoefer Scientific Instruments, San Francisco) according to a method by Laemmli (UK, Nature 227, 680-685, 1970). […] Whether total protein contents in samples are the same is determined using anti-β-actin and anti-LaminA/C antibodies. Changes in protein expression amounts were determined by measuring the intensities of chemiluminescence signals on the blot by means of densitometry. […] Each lane was calculated using AlphaEase™ version 5.5 software and background intensity was removed from the calculated values. […]

In the case of `c1cc(-c2cnn3cc(-c4ccc(OCCN5CCCCC5)cc4)cnc23)ccn1` [Compound C], the “SREBP-1C expression inhibition due to MBX2982 upon AMPK inhibitor treatment” value (SREBP-1c; 3 μM MBX2982 plus Compound C) is reported as “recovered”.
For `CC(C)c1noc(N2CCC(COc3ccc(-c4ccc(S(C)(=O)=O)cc4)nc3)CC2)n1` [GSK1292263, 3-isopropyl-5-(4-(((6-(4-(methylsulfonyl)phenyl)pyridin-3-yl)oxy)methyl)piperidin-1-yl)-1,2,4-oxadiazole], the fatty liver development [1] was “completely inhibited”, the “activity of SREBP-1c” value [2] was “inhibited” and the “expression of GPR119” value [2] was “increased”. For the same molecule, the “expression of acetyl CoA carboxylase (ACC)” value [2] was “inhibited”, the “expression of fatty acid synthase (FAS)” value [2] was “inhibited” and the “expression of stearoyl-CoA desaturase (SCD)” value [2] was “inhibited”.
For `O=S(=O)(NCCNC/C=C/c1ccc(Br)cc1)c1cccc2cnccc12` [H-89], the “function of the GPR119 ligand affecting SREBP-1C upon PKA inhibitor treatment” value (SREBP-1c; 3 μM GPR119 ligand plus H-89) was “not affected”.
In the case of `O=S(=O)(c1ccccc1)N(CC(F)(F)F)c1ccc(C(O)(C(F)(F)F)C(F)(F)F)cc1` [T0901317, N-(2,2,2-Trifluoroethyl)-N-[4-[2,2,2-trifluoro-1-hydroxy-1-(trifluoromethyl)ethyl]phenyl]benzenesulfonamide], the “mRNA expression level of SCD-1” value (SCD-1 mRNA) is reported as “increased”, the “mRNA expression level of FAS” value (FAS mRNA) is reported as “increased” and the “expression level of SREBP-1c” value (SREBP-1c protein [3]) is reported as “greatly increases”. For the same molecule, the “expression level of SREBP-1c” value (SREBP-1c protein [4]) was “greatly increases”.
